The results in this text go back to US11242337B2, “Compounds useful for treating gastrointestinal tract disorders” (Ardelyx, Inc., priority 2017, dated 2022).

Assay [1] addresses T1, NHE3 (Homo sapiens, UniProt P48764).
T1 construct: expressed in transfected cells
T1 sequence (P48764 26-834): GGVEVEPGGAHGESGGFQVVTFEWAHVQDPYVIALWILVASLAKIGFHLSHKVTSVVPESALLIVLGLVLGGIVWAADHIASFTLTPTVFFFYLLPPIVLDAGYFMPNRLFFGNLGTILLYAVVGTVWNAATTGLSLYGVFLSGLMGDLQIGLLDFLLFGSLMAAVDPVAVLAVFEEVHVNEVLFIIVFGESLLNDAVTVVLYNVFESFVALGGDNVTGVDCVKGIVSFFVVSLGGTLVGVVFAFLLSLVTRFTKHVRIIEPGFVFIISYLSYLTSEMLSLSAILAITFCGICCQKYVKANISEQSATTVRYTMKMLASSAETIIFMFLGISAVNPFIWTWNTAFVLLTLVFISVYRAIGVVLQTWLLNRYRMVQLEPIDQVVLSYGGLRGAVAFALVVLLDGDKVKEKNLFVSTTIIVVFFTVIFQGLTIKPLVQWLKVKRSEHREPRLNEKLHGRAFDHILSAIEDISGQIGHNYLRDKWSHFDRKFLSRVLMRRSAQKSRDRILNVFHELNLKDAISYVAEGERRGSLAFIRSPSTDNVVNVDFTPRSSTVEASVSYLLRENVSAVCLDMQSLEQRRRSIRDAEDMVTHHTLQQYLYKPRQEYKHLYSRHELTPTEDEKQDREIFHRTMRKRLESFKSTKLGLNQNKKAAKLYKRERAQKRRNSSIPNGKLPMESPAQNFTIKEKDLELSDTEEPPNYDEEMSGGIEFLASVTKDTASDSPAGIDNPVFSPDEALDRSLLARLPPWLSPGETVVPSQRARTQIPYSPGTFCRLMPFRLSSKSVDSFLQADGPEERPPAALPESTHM
T1 sequence (Q99653 2-195 partner limits assumed): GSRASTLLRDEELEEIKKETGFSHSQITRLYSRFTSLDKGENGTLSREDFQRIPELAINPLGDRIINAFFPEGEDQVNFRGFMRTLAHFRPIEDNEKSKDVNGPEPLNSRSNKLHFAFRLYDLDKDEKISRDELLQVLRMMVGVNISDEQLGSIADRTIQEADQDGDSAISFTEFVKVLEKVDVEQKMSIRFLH
The experiment in a line: Cell-based assay of NHE-3 activity (persistent inhibition), human. Conditions: human Persistence, 60 min incubation then washout. Summed up: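 PS120 fibroblasts expressing human NHE3 with NHERF2 exposed to 0-30 μM compound for 60 min at RT, then washed out; cells acid-loaded by NH4Cl prepulse with BCECF-AM and Na+-free buffer. Na+-driven pH recovery started 10 min post-washout; initial rate of BCECF ratio change (FLIPR) taken as activity.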

For assay [2], the target named is T1, NHE3. The experiment in a line: Cell-based assay of NHE-3 activity (pre-incubation inhibition), human. Conditions: human Preincubation. The method, boiled down:
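PS120 fibroblasts stably expressing human NHE3 and NHERF2, loaded 30 min at 37 °C with 5 μM BCECF-AM in NH4Cl buffer, then acidified 10 min at room temperature in Na+-free buffer with 0–30 μM compound. Initial rate of BCECF fluorescence ratio change (FLIPR) per minute taken as Na+/H+ activity.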

Consider `N[C@@H]1CCCN([C@H]2Cc3c(Cl)cc(Cl)cc3[C@@H]2Oc2ccc(S(=O)(=O)NCCOCCOCCNC(=O)NCCCCNC(=O)NCCOCCOCCNS(=O)(=O)c3ccc(O[C@H]4c5cc(Cl)cc(Cl)c5C[C@@H]4N4CCC[C@@H](N)C4)cc3Cl)c(Cl)c2)C1` [Example 104], for which the “% inhibition” value at NHE3 [1] and at NHE3 [2] was “C (>70%)” in each case. Besides, the pIC50 entry on NHE3 [1] and at NHE3 [2] (0-30 μM test compound) was “C (NHE3 pIC50 > 7)” in each case.

Turning to `N#Cc1cc(Cl)cc2c1C[C@H](N1CCNCC1)[C@H]2Oc1ccc(S(=O)(=O)N[C@@H]2CCN(CCOCCNC(=O)NCCCCNC(=O)NCCOCCN3CC[C@@H](NS(=O)(=O)c4ccc(O[C@H]5c6cc(Cl)cc(C#N)c6C[C@@H]5N5CCNCC5)cc4)C3)C2)cc1` [Example 108, 4-([(1S,2S)-6-Chloro-4-cyano-2-(piperazin-1-yl)-2,3-dihydro-1H-inden-1-yl]oxy)-N—[(R)-1-(20-[(R)-3-([4-([(1S2S)-6-chloro-4-cyano-2-(piperazin-1-yl)-2,3-dihydro-1H-inden-1-yl]oxy)phenyl]sulfonamido)pyrrolidin-1-yl]-7,14-dioxo-3,18-dioxa-6,8,13,15-tetraazaicosyl)pyrrolidin-3-yl]benzenesulfonamide; tetra(trifluoroacetate)], the “% inhibition” value on NHE3 [1] and at NHE3 [2] was “C (>70%)” each time. Besides, the pIC50 result on NHE3 [1] and against NHE3 [2] (0-30 μM test compound) was “C (NHE3 pIC50 > 7)” throughout.

In the case of `CN(C)[C@H]1Cc2c(Cl)cc(Cl)cc2[C@@H]1Oc1ccc(S(=O)(=O)N[C@H]2CCN(CCOCCNC(=O)NCCCCNC(=O)NCCOCCN3CC[C@H](NS(=O)(=O)c4ccc(O[C@H]5c6cc(Cl)cc(Cl)c6C[C@@H]5N(C)C)c(F)c4)C3)C2)cc1F` [Example 111, 4-([(1S,2S)-4,6-Dichloro-2-(dimethylamino)-2,3-dihydro-1H-inden-1-yl]oxy)-N—[(S)-1-(20-[(S)-3-([4-([(1S,2S)-4,6-dichloro-2-(dimethylamino)-2,3-dihydro-1H-inden-1-yl]oxy)-3-fluorophenyl]sulfonamido)pyrrolidin-1-yl]-7,14-dioxo-3,18-dioxa-6,8,13,15-tetraazaicosyl)pyrrolidin-3-yl)-3-fluorobenzenesulfonamide; tetra(trifluoroacetate)], the “% inhibition” value on NHE3 [1] and on NHE3 [2] was “C (>70%)” in each case. The pIC50 result against NHE3 [1] and on NHE3 [2] (0-30 μM test compound) was “C (NHE3 pIC50 > 7)” each time.

As to `CN(C)[C@H]1Cc2c(Cl)cc(Cl)cc2[C@@H]1Oc1ccc(S(=O)(=O)N[C@@H]2CCN(CCOCCNC(=O)NCCCCNC(=O)NCCOCCN3CC[C@@H](NS(=O)(=O)c4ccc(O[C@H]5c6cc(Cl)cc(Cl)c6C[C@@H]5N(C)C)c(F)c4)C3)C2)cc1F` [Example 112, 4-([(1S,2S)-4,6-Dichloro-2-(dimethylamino)-2,3-dihydro-1H-inden-1-yl]oxy)-N—[(R)-1-(20-[(R)-3-([4-([(1S,2S)-4,6-dichloro-2-(dimethylamino)-2,3-dihydro-1H-inden-1-yl]oxy)-3-fluorophenyl]sulfonamido)pyrrolidin-1 yl]-7,14-dioxo-3,18-dioxa-6,8,13,15-tetraazaicosyl)pyrrolidin-3-yl)-3-fluorobenzenesulfonamide; tetra(trifluoroacetate)], the “% inhibition” value on NHE3 [1] and on NHE3 [2] was “C (>70%)” throughout. In addition, the pIC50 result at NHE3 [1] and on NHE3 [2] (0-30 μM test compound) was “C (NHE3 pIC50 > 7)” each time.

As to `Cc1cc(S(=O)(=O)N[C@@H]2CCN(CCOCCNC(=O)NCCCCNC(=O)NCCOCCN3CC[C@@H](NS(=O)(=O)c4ccc(O[C@H]5c6cc(Cl)cc(C)c6C[C@@H]5N5CCC[C@@H](N(C)C)C5)c(C)c4)C3)C2)ccc1O[C@H]1c2cc(Cl)cc(C)c2C[C@@H]1N1CCC[C@@H](N(C)C)C1` [Example 113, 4-([(1S,2S)-6-Chloro-2-[(R)-3-(dimethylamino)piperidin-1-yl]-4-methyl-2,3-dihydro-1H-inden-1-yl]oxy)-N—[(R)-1-(20-[(R)-3-([4-([(1S,2S)-6-chloro-2-[(R)-3-(dimethylamino)piperidin-1-yl]-4-methyl-2,3-dihydro-1H-inden-1-yl]oxy)-3-methylphenyl]sulfonamido)pyrrolidin-1-yl]-7,14-dioxo-3,18-dioxa-6,8,13,15-tetraazaicosyl)pyrrolidin-3-yl]-3-methylbenzenesulfonamide; tetra(trifluoroacetate)], the “% inhibition” value at NHE3 [1] and on NHE3 [2] was “C (>70%)” in each case. For the same molecule, the pIC50 entry against NHE3 [1] and on NHE3 [2] (0-30 μM test compound) was “C (NHE3 pIC50 > 7)” throughout.

On to `Cc1cc(S(=O)(=O)N[C@H]2CCN(CCOCCNC(=O)NCCCCNC(=O)NCCOCCN3CC[C@H](NS(=O)(=O)c4ccc(O[C@H]5c6cc(Cl)cc(C)c6C[C@@H]5N5CCC[C@@H](N(C)C)C5)c(C)c4)C3)C2)ccc1O[C@H]1c2cc(Cl)cc(C)c2C[C@@H]1N1CCC[C@@H](N(C)C)C1` [Example 114, 4-([(1S,2S)-6-Chloro-2-[(R)-3-(dimethylamino)piperidin-1-yl]-4-methyl-2,3-dihydro-1H-inden-1-yl]oxy)-N—[(S)-1-(20-[(S)-3-([4-([(1S,2S)-6-chloro-2-[(R)-3-(dimethylamino)piperidin-1-yl]-4-methyl-2,3-dihydro-1H-inden-1-yl]oxy)-3-methylphenyl]sulfonamido)pyrrolidin-1-yl]-7,14-dioxo-3,18-dioxa-6,8,13,15-tetraazaicosyl)pyrrolidin-3-yl]-3-methylbenzenesulfonamide; tetra(trifluoroacetate)], for which the “% inhibition” value at NHE3 [1] and at NHE3 [2] was “C (>70%)” throughout. In addition, the pIC50 result on NHE3 [1] and at NHE3 [2] (0-30 μM test compound) was “C (NHE3 pIC50 > 7)” throughout.

As to `CN(C)[C@@H]1CCCN([C@H]2Cc3c(C#N)cc(Cl)cc3[C@@H]2Oc2ccc(S(=O)(=O)NCCOCCOCCNC(=O)NCCCCNC(=O)NCCOCCOCCNS(=O)(=O)c3ccc(O[C@H]4c5cc(Cl)cc(C#N)c5C[C@@H]4N4CCC[C@@H](N(C)C)C4)cc3)cc2)C1` [Example 121, 4-([(1S,2S)-6-Chloro-4-cyano-2-[(R)-3-(dimethylamino)piperidin-1-yl]-2,3-dihydro-1H-inden-1-yl]oxy)-N-[26-([4-([(1S,2S)-6-chloro-4-cyano-2-[(R)-3-(dimethylamino)piperidin-1-yl]-2,3-dihydro-1H-inden-1-yl]oxy)phenyl]sulfonamido)-10,17-dioxo-3,6,21,24-tetraoxa-9,11,16,18-tetraazahexacosyl]benzenesulfonamide], the figures for the “% inhibition” value on NHE3 [1] and on NHE3 [2] were “A (NHE3 < 40%)” and “B (40-70%)”, respectively. Further, the pIC50 entry against NHE3 [1] and at NHE3 [2] (0-30 μM test compound) was “C (NHE3 pIC50 > 7)” each time.

`N#Cc1cc(Cl)cc2c1C[C@H](N1CCNCC1)[C@H]2Oc1ccc(S(=O)(=O)NC(=O)CCCNC(=O)NCCCCNC(=O)NCCCC(=O)NS(=O)(=O)c2ccc(O[C@H]3c4cc(Cl)cc(C#N)c4C[C@@H]3N3CCNCC3)cc2)cc1` [Example 124, N^1,N^18-Bis([4-([(1S,2S)-6-chloro-4-cyano-2-(piperazin-1-yl)-2,3-dihydro-1H-inden-1-yl]oxy)phenyl]sulfonyl)-6,13-dioxo-5,7,12,14-tetraazaoctadecanediamide]: the “% inhibition” value on NHE3 [1] and on NHE3 [2] was “C (>70%)” each time. In addition, the IC50 (in general, the point on the concentration scale where inhibition reaches its midpoint) against NHE3 [1] is 100 to 1000 nM. For the same molecule, the pIC50 result at NHE3 [2] (0-30 μM test compound) is “C (NHE3 pIC50 > 7)”.

For the molecule `N#Cc1cc(Cl)cc2c1C[C@H](N1CCCNCC1)[C@H]2Oc1ccc(S(=O)(=O)N[C@@H]2CCN(CCOCCNC(=O)NCCCCNC(=O)NCCOCCN3CC[C@@H](NS(=O)(=O)c4ccc(O[C@H]5c6cc(Cl)cc(C#N)c6C[C@@H]5N5CCCNCC5)cc4)C3)C2)cc1` [Example 127, 4-([(1S,2S)-6-Chloro-4-cyano-2-(1,4-diazepan-1-yl)-2,3-dihydro-1H-inden-1-yl]oxy)-N—[(R)-1-(20-[(R)-3-([4-([(1S,2S)-6-chloro-4-cyano-2-(1,4-diazepan-1-yl)-2,3-dihydro-1H-inden-1-yl]oxy)phenyl]sulfonamido)pyrrolidin-1-yl]-7,14-dioxo-3,18-dioxa-6,8,13,15-tetraazaicosyl)pyrrolidin-3-yl]benzenesulfonamide; bis(trifluoroacetic acid)], the “% inhibition” value is “A (NHE3 < 40%)” at NHE3 [1] and “C (>70%)” on NHE3 [2]. Further, the half-maximal inhibitory concentration (IC50) at NHE3 [1] and against NHE3 [2] (0-30 μM test compound) was below 100 nM in each case.
